Experimental data from ChEMBL document CHEMBL3352147, “Synthesis and structure-activity relationship of 4-azaheterocycle benzenesulfonamide derivatives as new microtubule-targeting agents” (Bioorg Med Chem Lett, 2014).
Active and inactive are the calls of the source. No cut-off for these calls is given here.

Experiments:
[1] = Antiproliferative activity against human BGC823 cells assessed as inhibition of cell proliferation at 10 uM by MTT assay; assay type: functional; conditions: BGC-823
A549 = test: Antiproliferative activity against human A549 cells assessed as inhibition of cell proliferation at 10 uM by MTT assay; assay type: functional
[2] = Antiproliferative activity against human SKOV3 cells assessed as inhibition of cell proliferation by MTT assay; assay type: functional, cell-based; conditions: SK-OV-3
HepG2 = test: Antiproliferative activity against human HepG2 cells assessed as inhibition of cell proliferation by MTT assay; assay type: functional, cell-based
Jurkat = test: Antiproliferative activity against human Jurkat cells assessed as inhibition of cell proliferation at 10 uM by MTT assay; assay type: functional
[3] = Antiproliferative activity against HEK293T cells assessed as inhibition of cell proliferation at 10 uM by MTT assay; assay type: cell-based, HEK-293T; conditions: human
[4] = Antiproliferative activity against human PC3 cells assessed as inhibition of cell proliferation by MTT assay; assay type: functional, cell-based; conditions: PC-3
[5] = Antiproliferative activity against human HCT116 cells assessed as inhibition of cell proliferation by MTT assay; assay type: functional, cell-based; conditions: HCT-116
[6] = target: T1, Tubulin alpha (Homo sapiens) (UniProt P0DPH7+P68366+Q71U36+P68363+Q9BQE3+Q6PEY2+A6NHL2+Q9NY65); test: Inhibition of tubulin alpha in human LoVo cells assessed as effect on microtubule spindles at 100 nM after 24 hrs; assay type: cell-based
[7] = target: T1, Tubulin alpha (Homo sapiens); test: Inhibition of tubulin alpha in human LoVo cells assessed as effect on tubulin intensity level at 20 nM; assay type: cell-based
[8] = target: T1, Tubulin alpha (Homo sapiens); test: Inhibition of tubulin alpha in human LoVo cells assessed as effect on microtubule spindles at 20 nM after 24 hrs; assay type: cell-based
[9] = target: T1, Tubulin alpha (Homo sapiens); test: Inhibition of tubulin alpha in human LoVo cells assessed as effect on tubulin intensity level at 100 nM; assay type: cell-based

| Compound | IC50 (HepG2) | inhibition [6] | inhibition [7] | inhibition [8] | inhibition [9] | inhibition at 10 µM [1] | inhibition at 10 µM (A549) | IC50 [2] | inhibition at 10 µM (Jurkat) | inhibition at 10 µM [3] | IC50 [4] | IC50 [5] |
| --- | --- | --- | --- | --- | --- | --- | --- | --- | --- | --- | --- | --- |
| O=[N+]([O-])c1ccc2c(c1)N(S(=O)(=O)c1ccc(-c3cnc(C4CC4)o3)cc1)CC2 | 273 nM | – | – | – | – | 97.7% | 50.3% | 114 nM | 96.7% | 77.8% | 14 nM | 181 nM |
| O=S(=O)(c1ccc(-c2cnc(C3CC3)s2)cc1)N1CCc2ccccc21 | – | – | – | – | – | 38.5% | -10.1% | – | 29.8% | -15.4% | – | – |
| O=S(=O)(c1ccc(-c2cnc(C3CC3)o2)cc1)n1ccc2ccccc21 | – | – | – | – | – | 37.9% | 77.6% | – | 13.9% | 10.9% | – | – |
| O=[N+]([O-])c1ccc2c(c1)CCN2S(=O)(=O)c1ccc(-c2cnc(C3CC3)o2)cc1 | 1650 nM | – | – | – | – | 87.5% | 73.1% | 1300 nM | 92.4% | 48.4% | 1920 nM | 1190 nM |
| C=Cc1ncc(-c2ccc(S(=O)(=O)N3CCc4ccccc43)cc2)o1 | 25800 nM | – | – | – | – | – | – | 1130 nM | – | – | – | 1330 nM |
| O=c1[nH]n(S(=O)(=O)c2ccc(-c3cnc(C4CC4)o3)cc2)c2ccccc12 | 1010 nM | – | – | – | – | 83.7% | 66.5% | 474 nM | 94.7% | 80.9% | 1460 nM | 812 nM |
| N#Cc1ccc2c(c1)CCN2S(=O)(=O)c1ccc(-c2cnc(C3CC3)o2)cc1 | – | – | – | – | – | 29.6% | 28.4% | – | 15.8% | 37.4% | – | – |
| O=S(=O)(c1ccc(-c2cnc(C3CC3)o2)cc1)N1CCc2cc(F)ccc21 | – | – | – | – | – | 18.3% | 36.1% | – | 24.3% | 25.7% | – | – |
| CS(=O)(=O)c1ccc2c(c1)CCN2S(=O)(=O)c1ccc(-c2cnc(C3CC3)o2)cc1 | – | – | – | – | – | 28.3% | 4.14% | – | 13% | 6.54% | – | – |
| CCc1ncc(-c2ccc(S(=O)(=O)N3CCc4ccccc43)cc2)o1 | > 100000 nM | – | – | – | – | – | – | 154 nM | – | – | – | 309 nM |
| CC1Cc2ccccc2N1S(=O)(=O)c1ccc(-c2cnc(C3CC3)o2)cc1 (stereo unspecified) | 16800 nM | – | – | – | – | 81.8% | 52.4% | 12400 nM | 89.9% | 61.3% | 20500 nM | 14400 nM |
| O=S(=O)(c1ccc(-c2cnc(C3CC3)o2)cc1Cl)N1CCc2ccccc21 | 2180 nM | – | – | – | – | – | – | 220 nM | – | – | – | 422 nM |
| COc1ccc2c(c1)CCN2S(=O)(=O)c1ccc(-c2cnc(C3CC3)o2)cc1 | 55 nM | Active | Active | Active | Active | – | – | 39 nM | – | – | 82 nM | 112 nM |
| O=S(=O)(c1ccc(-c2nnc(C3CC3)o2)cc1)N1CCc2ccccc21 | – | – | – | – | – | 27.7% | 63.7% | – | 31.7% | -13.8% | – | – |
| O=S(=O)(c1ccc(-c2cnc(C3CC3)o2)cc1F)N1CCc2ccccc21 | 18700 nM | – | – | – | – | – | – | 139 nM | – | – | – | 168 nM |

Second part, led by results:

| IC50 (HepG2) | inhibition [6] | inhibition [7] | inhibition [8] | inhibition [9] | Compound | inhibition at 10 µM [1] | inhibition at 10 µM (A549) | IC50 [2] | inhibition at 10 µM (Jurkat) | inhibition at 10 µM [3] | IC50 [4] | IC50 [5] |
| --- | --- | --- | --- | --- | --- | --- | --- | --- | --- | --- | --- | --- |
| 248 nM | – | – | – | – | O=S(=O)(c1ccc(-c2cnc(C3CC3)o2)cc1)N1CCc2ccc(Cl)cc21 | 87.4% | 63.6% | 144 nM | 95.5% | 71.9% | 138 nM | 255 nM |
| 58 nM | Active | Active | Active | Active | O=S(=O)(c1ccc(-c2cnc(C3CC3)o2)cc1)N1CCc2ccccc21 | – | – | 55 nM | – | – | 62 nM | 105 nM |
| – | Active | Active | Active | Active | O=S(=O)(c1ccc(-c2cnc(C3CC3)o2)cc1)N1CCCc2ccccc21 | – | – | – | – | – | – | – |
| > 100000 nM | – | – | – | – | O=S(=O)(c1ccc(-c2cnc(C3CC3)o2)cc1)N1CCCCC1 | – | – | > 100000 nM | – | – | > 100000 nM | > 100000 nM |
| 13600 nM | – | – | – | – | O=S(=O)(c1ccc(-c2cnc(C3CC3)o2)cc1)N1CC2(CCCCC2)c2ccccc21 | 84.1% | 58.4% | 5200 nM | 94.8% | 76% | 6580 nM | 6130 nM |
| 295 nM | – | – | – | – | Cc1ccc2c(c1)CCN2S(=O)(=O)c1ccc(-c2cnc(C3CC3)o2)cc1 | 79.1% | 63.4% | 201 nM | 91.1% | 74.7% | 189 nM | 233 nM |
